The values below come from patent publication US9114180B2, “Malodor neutralizing compositions containing acids and alicyclic ketones” (Robertet, Inc., priority 2012, dated 2015).

Experiment [1] is described as follows: Malodor evaluation panel, synthetic bathroom malodor on cotton swatches. The following applies: for Score of Ketone Alone @ 1%: average of 14; for Score of Combination @ 1% + 1%: ketone 1% + undecylenic acid 1%; for (Score of Acid) − (Score of Combination) / (Score of Ketone) − (Score of Combination): synthetic bathroom malodor; for (Score of Acid) − (Score of Combination): acid = undecylenic acid; for (Score of Ketone) − (Score of Combination): combination with undecylenic acid.

A short description of experiment [2]: Malodor evaluation panel, cat urine on cotton swatches. Conditions: for (Score of Ketone) − (Score of Combination) / (score of citric acid) − (score of combination): cat urine malodor, combination with citric acid; for Score of combination 1% + 1% / Score alone 1% (alicyclic ketone): remaining cat urine malodor; for Score of combination 1% + 1%: scale 1-7, ketone 1% + citric acid 1% in spray, average of 14; for Score alone 1% (alicyclic ketone): scale 1 very weak to 7 (control, very strong), ketone 1% in spray, average of 14 panelists. Further details: key to (Score of Ketone) − (Score of Combination) / (score of citric acid) − (score of combination): difference of malodor scores, 1 = very weak to 7 = very strong (control). An excerpt: The source of the malodor tested was cat urine. […] A period of three minutes was allowed for the urine to be absorbed by the fabric. Onto each swatch, 3.0 grams of a composition was sprayed. As a control, 3.0 grams of water was sprayed on certain swatches. Each swatch was placed in the middle of a two by two foot (61×61 cm) cubicle and all doors were closed. Actual testing began after thirty minutes. Each member of the panel was asked to sniff the malodor control first and was notified that the control has a rating of 7—indicating very strong malodor. They were then asked to proceed to sniff the other samples and provide a rating for malodor remaining. Thus, the remaining malodor was evaluated on a sliding scale, with 1 being very weak malodor. The panelists were instructed to ignore any fragrance that they may detect and rate only the malodor. […] The fabric spray base was an aqueous solution containing 75% distilled water, 20% ethanol, and 5% of non-ionic surfactant. […] The scores reported are therefore the average of 14 replications. The ionones and irones tested were racemic mixtures of their respective α, β, and γ-isomers. The table sets forth what is believed to be the dominant isomer. Apparent duplications (Tests 5, 6 and 8; Tests 10 and 11) are tests on substances obtained from different sources, and have different mixtures of isomers. […] The ionones tested were mixtures of α, β and γ isomers; the table sets for the dominant isomer.

Experiment [3] can be described thus: Malodor evaluation panel, cigarette smoke on cotton swatches. Conditions: for (Score of Acid) − (Score of Combination) / (Score of Ketone) − (Score of Combination): cigarette smoke malodor; for Score of Ketone Alone @ 1%: average of 14, Table 3. How it is done: The source of the malodor tested was cigarette smoke. Swatches of 100% untreated cotton fabric were cut into 15 cm (6-inch) squares and were placed in large plastic containers. Two cigarettes were smoked up inside the plastic containers containing the swatches with closed lids. The environment inside each closed container was allowed to equilibrate for 24 hours. Onto each swatch, 3.0 grams of a composition was sprayed. As a control, 3.0 grams of water was sprayed on certain swatches. Each swatch was placed in the middle of a two by two foot (61×61 cm) cubicle and all doors were closed. Actual testing began after thirty minutes. Each member of the panel was asked to sniff the malodor control first and was notified that the control has a rating of 7—indicating very strong malodor. They were then asked to proceed to sniff the other samples and provide a rating for malodor remaining. Thus, the remaining malodor was evaluated on a sliding scale, with 1 being very weak malodor. The panelists were instructed to ignore any fragrance that they may detect and rate only the malodor. […] Neodol 91-8 and the fabric spray base were the same as those described in Example 1.

Experiment [4] is described as follows: Malodor evaluation panel, synthetic bathroom malodor on cotton swatches. An excerpt: A malodor evaluation panel of 14 persons was assembled and asked to evaluate the odor neutralizing effectiveness of citric acid and dihydro-β-ionone, either alone or in combination. The source of the malodor tested was synthetic bathroom malodor.
Swatches of 100% untreated cotton fabric were cut into 15 cm (6-inch) squares and were placed on weighing boats. 0.5 grams of synthetic bathroom malodor was pipetted onto each of the swatches. A period of three minutes was allowed for the malodor to be absorbed by the fabric.
Onto each swatch, 3.0 grams of a composition was sprayed. As a control, 3.0 grams of water was sprayed on certain swatches.
Each swatch was placed in the middle of a two by two foot (61×61 cm) cubicle and all doors were closed. Actual testing began after thirty minutes.
They were then asked to proceed to sniff the other samples and provide a rating for malodor remaining. Thus, the remaining malodor was evaluated on a sliding scale, with 1 being very weak malodor. The panelists were instructed to ignore any fragrance that they may detect and rate only the malodor.
For the spray compositions containing citric acid or dihydro-β-ionone alone, each spray composition (having a total weight of 20.00 g) consisted of:
For the spray composition containing both citric acid and dihydro-β-ionone, the spray composition (having a total weight of 20.00 g) consisted of:
Neodol 91-8 and the fabric spray base were the same as those described in Example 1.
Each panelist tested citric acid, dihydro-β-ionone, and their combinations. The scores reported are therefore the average of 14 replications.
The results are summarized in Table 6, in which the scores reported are the average of 14 replications.

[5] abbreviates: remaining synthetic bathroom malodor, scale 1-7, Table 6.
[6] abbreviates: remaining synthetic bathroom malodor, scale 1-7.
Where [7] appears, read: remaining cigarette smoke malodor, scale 1-7.
Where [8] appears, read: remaining cigarette smoke malodor, scale 1-7, ketone 1% + citric acid 1%.

“And” between values parts separate entries of the source, which are not always exact repeats. Equal values may be shown once.

Consider `CCC(=O)C=CC1C(C)=CCCC1(C)C` (centres unmarked) [1-(2,6,6-trimethyl-2-cyclohexen-1-yl)pent-1-en-3-one], for which the “Score of Ketone Alone @ 1%” value in experiment [1] (setting [5]) turned out to be 2.80. The “Score of Combination @ 1% + 1%” value in experiment [1] (setting [6]) came to 2.70. In experiment [1], the “(Score of Acid) − (Score of Combination)” value was 2.50 and the “(Score of Ketone) − (Score of Combination)” value (“(Score of Ketone) −” below) amounted to 0.10.
In the case of `CC(C)(C)C1CCCCC1=O` (centres unmarked) [2-tert-butylcyclohexanone], the “Score of Ketone Alone @ 1%” value in experiment [1] (setting [5]) turned out to be 4.50. Also, in experiment [1] (setting [6]), the “Score of Combination @ 1% + 1%” value is listed as 4.10. Also, in experiment [1], the “(Score of Acid) − (Score of Combination)” value is given as 0.20 and the “(Score of Ketone) −” value is 0.40.
For the molecule `CCC(C)(C)C1CCC(=O)CC1` [4-tert-pentylcyclohexanone], in experiment [2], the “(Score of Ketone) −” value stood at 0.60, the “(score of citric acid) − (score of combination)” value (“(score of citric acid) −” for short) stood at 0.50, the “Score of combination 1% + 1%” value came out at 2.90 and the “Score alone 1% (alicyclic ketone)” value is given as 3.50. Further, in experiment [3] (acid = citric acid), the “(Score of Acid) − (Score of Combination)” value is listed as 0.80. In experiment [3] (combination with citric acid), the “(Score of Ketone) −” value amounted to 0.30. Besides, the “Score of Ketone Alone @ 1%” value in experiment [3] (setting [7]) stood at 3.40. The “Score of Combination @ 1% + 1%” value in experiment [3] (setting [8]) is 3.10.
As for `CC(=O)CCC1=C(C)CCCC1(C)C` [dihydro-β-ionone], in experiment [2], the “(Score of Ketone) −” value is 1.40, the “(score of citric acid) −” value is 0.80, the “Score of combination 1% + 1%” value was determined as 2.50 and the “Score alone 1% (alicyclic ketone)” value is reported as 3.90. Also, the “Score of Combination @ 1% + 1%” value in experiment [4] (remaining synthetic bathroom malodor, scale 1-7, ketone 1% + citric acid 1%) was found to be 3.60. Moreover, the “(Score of Acid) − (Score of Combination)” value in experiment [4] (synthetic bathroom malodor, acid = citric acid) worked out at 1.40. Besides, the “(Score of Ketone) −” value in experiment [4] (synthetic bathroom malodor, combination with citric acid) is recorded as 0.10. In addition, the “Score of Ketone Alone @ 1%” value in experiment [1] (remaining synthetic bathroom malodor, scale 1-7, Table 5) amounted to 3.70.
On to `CCC(=O)/C=C/C1=C(C)CCCC1(C)C` [methyl β-ionone], for which, in experiment [2], the “(Score of Ketone) −” value worked out at 0.10, the “(score of citric acid) −” value came out at 0.90, the “Score of combination 1% + 1%” value came out at 3.40 and the “Score alone 1% (alicyclic ketone)” value is 3.50.
With `C=CCCCCCCCCC(=O)O` [undecylenic acid], the “Score of Undecylenic Acid @ 1%” value was 4.20 in experiment [3] (remaining cigarette smoke malodor, scale 1-7, undecylenic acid alone); 5.00 and 4.30 and 5.10 and 5.20 in experiment [1] (remaining synthetic bathroom malodor, scale 1-7, undecylenic acid alone, in the test of that line).
As for `CC(=O)/C=C/C1C(C)=CCCC1(C)C` (stereo not drawn) [α-ionone], in experiment [2], the “(Score of Ketone) −” value was determined as 1.10, the “(score of citric acid) −” value was found to be 0.10, the “Score of combination 1% + 1%” value is recorded as 3.10 and the “Score alone 1% (alicyclic ketone)” value turned out to be 4.20.
Consider `CC(=O)/C=C/C1C(C)=CCC(C)C1(C)C` (stereo not drawn) [α-irone], for which, in experiment [2], the “(Score of Ketone) −” value worked out at 0.20, the “(score of citric acid) −” value is recorded as 0.00, the “Score of combination 1% + 1%” value is listed as 3.70 and the “Score alone 1% (alicyclic ketone)” value was 3.90.
For the molecule `CC(=O)/C=C/C1=C(C)CCCC1(C)C` [β-ionone], in experiment [2], the “(Score of Ketone) −” value is recorded as 0.70, the “(score of citric acid) −” value is on record as 1.00, the “Score of combination 1% + 1%” value was determined as 3.10 and the “Score alone 1% (alicyclic ketone)” value was 3.80. Moreover, in experiment [1] (setting [5]), the “Score of Ketone Alone @ 1%” value was determined as 4.60. In addition, the “Score of Combination @ 1% + 1%” value in experiment [1] (setting [6]) stood at 3.30. For the same molecule, in experiment [1], the “(Score of Acid) − (Score of Combination)” value stood at 1.80 and the “(Score of Ketone) −” value was found to be 1.30.
For the molecule citric acid, the “Score of Citric Acid @ 1%” value in experiment [3] (remaining cigarette smoke malodor, scale 1-7, citric acid alone, in the test of that line) is 3.90 and 4.80; in experiment [4] (remaining synthetic bathroom malodor, scale 1-7, citric acid alone) it was 5.00.
Consider methyl α-ionone, for which the “(Score of Acid) − (Score of Combination)” value in experiment [3] (acid = citric acid) amounted to 1.10; in experiment [3] (acid = undecylenic acid) it was 1.40; in experiment [1] it was 1.60. The “(Score of Ketone) −” value was 0.50 in experiment [3] (combination with citric acid), 0.10 in experiment [3] (combination with undecylenic acid) and 0.40 in experiment [1]. Moreover, the “Score of Ketone Alone @ 1%” value in experiment [3] (setting [7]) is reported as 4.20; in experiment [1] (setting [5]) it was 3.80. Moreover, the “Score of Combination @ 1% + 1%” value in experiment [3] (setting [8]) is on record as 3.70; in experiment [3] (remaining cigarette smoke malodor, scale 1-7, ketone 1% + undecylenic acid 1%), 2.80; in experiment [1] (setting [6]) it was 3.40.
